Assay: Cmax in Sprague-Dawley rat at 10 mg/kg, po measured up to 7 hrs by LC-MS-MS analysis
Assay type: ADME, organism-based
Set-up: route oral, dose 10 mg/kg, time <=7
Details: in vivo

Cmax	SMILES
510 nM	Cc1ncc(S(=O)(=O)NC(=O)NC/C=C2\CCCc3cnn(Cc4ccc(Cl)cc4Cl)c32)s1
11200 nM	Cc1cc(S(=O)(=O)NC(=O)NC/C(F)=C2\CCCc3cnn(Cc4ccc(Cl)cc4Cl)c32)sc1Cl

Continued, molecule first:

SMILES	Cmax
O=C(NC/C(F)=C1\CCCc2cnn(-c3ccc(C(F)(F)F)cc3)c21)NS(=O)(=O)c1cc(Cl)c(Cl)s1	700 nM
O=C(NC/C=C1\CCCc2cnn(C3CCN(c4ccc(F)cc4)CC3)c21)NS(=O)(=O)c1cc(Cl)c(Cl)s1	130 nM
O=C(NC/C=C1\CCCc2cnn(-c3ccc(C(F)(F)F)cc3)c21)NS(=O)(=O)c1cc(Cl)c(Cl)s1	1540 nM
COc1ccc(Cl)cc1S(=O)(=O)NC(=O)NC/C(F)=C1\CCCc2cnn(Cc3ccc(Cl)cc3Cl)c21	4750 nM

Assay: Clearance in Sprague-Dawley rat at 2 mg/kg, iv measured up to 24 hrs by LC-MS-MS analysis
Assay type: ADME, organism-based
Details: in vivo

clearance	SMILES
1.66 mL/min/kg	Cc1cc(S(=O)(=O)NC(=O)NC/C(F)=C2\CCCc3cnn(Cc4ccc(Cl)cc4Cl)c32)sc1Cl

Assay: Volume of distribution at steady state in Sprague-Dawley rat at 2 mg/kg, iv measured up to 24 hrs by LC-MS-MS analysis
Assay type: ADME, organism-based
Details: in vivo, read-out: Vdss

Vd	SMILES
0.491 L/kg	Cc1cc(S(=O)(=O)NC(=O)NC/C(F)=C2\CCCc3cnn(Cc4ccc(Cl)cc4Cl)c32)sc1Cl

Assay: AUClast in Sprague-Dawley rat at 10 mg/kg, po measured up to 7 hrs by LC-MS-MS analysis
Assay type: ADME, organism-based
Set-up: route oral, dose 10 mg/kg, time <=7
Details: in vivo

AUC(0-t) at 7 h	SMILES
2.4 µM·h	Cc1ncc(S(=O)(=O)NC(=O)NC/C=C2\CCCc3cnn(Cc4ccc(Cl)cc4Cl)c32)s1
57.8 µM·h	Cc1cc(S(=O)(=O)NC(=O)NC/C(F)=C2\CCCc3cnn(Cc4ccc(Cl)cc4Cl)c32)sc1Cl

More lines, now with the values behind:

SMILES	AUC(0-t) at 7 h
O=C(NC/C(F)=C1\CCCc2cnn(-c3ccc(C(F)(F)F)cc3)c21)NS(=O)(=O)c1cc(Cl)c(Cl)s1	3.68 µM·h
O=C(NC/C=C1\CCCc2cnn(C3CCN(c4ccc(F)cc4)CC3)c21)NS(=O)(=O)c1cc(Cl)c(Cl)s1	0.73 µM·h
O=C(NC/C=C1\CCCc2cnn(-c3ccc(C(F)(F)F)cc3)c21)NS(=O)(=O)c1cc(Cl)c(Cl)s1	7.39 µM·h
COc1ccc(Cl)cc1S(=O)(=O)NC(=O)NC/C(F)=C1\CCCc2cnn(Cc3ccc(Cl)cc3Cl)c21	10.8 µM·h

Assay: Half life in Sprague-Dawley rat at 10 mg/kg, po measured up to 24 hrs by LC-MS-MS analysis
Assay type: ADME, organism-based
Details: in vivo

half-life	SMILES
3.2 h	Cc1cc(S(=O)(=O)NC(=O)NC/C(F)=C2\CCCc3cnn(Cc4ccc(Cl)cc4Cl)c32)sc1Cl

Assay: Half life in Sprague-Dawley rat at 2 mg/kg, iv measured up to 24 hrs by LC-MS-MS analysis
Assay type: ADME, organism-based
Details: in vivo

half-life	SMILES
5.9 h	Cc1cc(S(=O)(=O)NC(=O)NC/C(F)=C2\CCCc3cnn(Cc4ccc(Cl)cc4Cl)c32)sc1Cl

Assay: Oral bioavailability in Sprague-Dawley rat at 10 mg/kg measured up to 24 hrs by LC-MS-MS analysis
Assay type: ADME, organism-based
Details: in vivo

bioavailability	SMILES
55%	Cc1cc(S(=O)(=O)NC(=O)NC/C(F)=C2\CCCc3cnn(Cc4ccc(Cl)cc4Cl)c32)sc1Cl

Assay: AUC(0 to 24 hrs) in Sprague-Dawley rat at 10 mg/kg, po measured up to 24 hrs by LC-MS-MS analysis
Assay type: ADME, organism-based
Set-up: route oral, dose 10 mg/kg, time <=24
Details: in vivo

AUC(0-t)	SMILES
96.2 µM·h	Cc1cc(S(=O)(=O)NC(=O)NC/C(F)=C2\CCCc3cnn(Cc4ccc(Cl)cc4Cl)c32)sc1Cl

Assay: Cmax in Sprague-Dawley rat at 10 mg/kg, po measured up to 24 hrs by LC-MS-MS analysis
Assay type: ADME, organism-based
Set-up: route oral, dose 10 mg/kg, time <=24
Details: in vivo

Cmax	SMILES
9950 nM	Cc1cc(S(=O)(=O)NC(=O)NC/C(F)=C2\CCCc3cnn(Cc4ccc(Cl)cc4Cl)c32)sc1Cl

Source: ChEMBL document CHEMBL5029194, “Discovery and Optimization of 7-Alkylidenyltetrahydroindazole-Based Acylsulfonamide EP3 Antagonists” (ACS Med Chem Lett, 2022)
